Assay results from publication PMC12238837, “DCAF16‐Based Covalent Molecular Glues for Targeted Protein Degradation of Histone Deacetylases” (Archiv Der Pharmazie, 2025).

What was measured:
Format in all cases: cell-based
[1] = system: MM.1S cells; experiment: CellTiter-Glo cell viability assay; settings: Homo sapiens, MM1.S, 72 h, read-out: IC50 cell viability
Procedure: The MM.1S was obtained from ATCC (Manassas, VA, USA).
(§1) For this purpose, the dilution series was prepared at 200× concentration in DMSO and then further diluted to 10× concentration in medium. The final DMSO concentration was 0.5%. The toxicity of compounds was assessed after 72 h using the CellTiter‐Glo 2.0 cell viability assay. Luminescence was then measured, and the IC50 was determined by plotting dose–response curves and performing nonlinear regression using GraphPad Prism.
as §1, with “series were” for “series was”, “the CellTiter-Glo” for “the CellTiter‐Glo”, “plotting dose-response” for “plotting dose–response”, “GraphPad Prism.^[1]” for “GraphPad Prism.”

[2] = system: acetylated histone H3 (indicator of reduced HDAC1‐3 activity); experiment: Cellular target engagement: immunoblot of acetylated histone H3; settings: MM.1S cells, 10 µM, 24 h
Procedure: (§2) Immunoblot analysis of acetylated histone H3 (A) and α‐tubulin (B) in MM.1S cell lysates after treatment with the indicated compounds (10 µM) or vehicle (DMSO) for 24 h. Representative images from a total of n = 2 replicates.
(§3) The MM.1S cells (3 × 10^6 cells/mL) were seeded into cell culture flasks and, after 72 h, treated with the indicated concentration of compound or DMSO for the given time. Cell lysis was performed with Cell Extraction Buffer and the addition of Halt Protease Inhibitor Cocktail and phenylmethanesulfonyl fluoride. Protein content was determined by Pierce BCA Protein Assay Kit. Samples were denatured by Laemmli 2× Concentrate, and Precision Plus Protein Unstained Standard was used as a molecular weight marker in all cases. SDS‐PAGE was performed with 10% Mini‐PROTEAN TGX Stain‐Free Gel (Catalog# 458035, Bio‐Rad, Hercules, CA, USA) at 200 V for 50 min (Catalog# 458035, Bio‐Rad). Afterwards, proteins were transferred with the Trans‐Blot Turbo Transfer System to Immobilon‐FL PVDF membranes at 1.0 A for 30 min and incubated with 5% milk‐powder solution for 1 h at room temperature under slight agitation. Subsequently, the membranes were incubated with anti‐HDAC1 (Catalog# 5356S, Cell Signaling Technology, Denver, MA, USA), anti‐HDAC2 (Catalog# 9959S, Cell Signaling Technology, Denver, MA, USA), anti‐HDAC3 (Catalog# 85057S, Cell Signaling Technology, Denver, MA, USA), anti‐HDAC4 (Catalog# 7628S, Cell Signaling Technology, Denver, MA, USA), anti‐HDAC6 (Catalog# 7558S, Cell Signaling Technology, Denver, MA, USA), anti‐acetyl‐histone H3 (Catalog# 9677S, Cell Signaling Technology, Denver, MA, USA), anti‐acetyl‐α‐tubulin (Catalog# 5335, Cell Signaling Technology, Denver, MA, USA), or anti‐GAPDH (Catalog# T0004, Affinity Biosciences, Cincinnati, OH, USA) antibody solutions in 1:1000–1:20000 dilutions at room temperature under slight agitation for 1 h, then put membranes at 4°C for overnight. […] The ChemiDoc XRS+ System was used for detection, and Image Lab Software 6.1 (Bio‐Rad, Hercules, CA, USA) for quantification.

[3] = system: acetylated α‐tubulin (marker of decreased HDAC6 activity); experiment: Cellular target engagement: immunoblot of acetylated α-tubulin; settings: MM.1S cells, 10 µM, 24 h
Procedure: as §2, §3

Row | SMILES | IC50 [1] [nM] | level of acetylated histone H3 [2] | level of acetylated α-tubulin [3]
1 | O=C(CCCCCCNC(=O)c1cnc(N(c2ccccc2)c2ccccc2)nc1)NO [Ricolinostat] | 2590 ± 270 | – | –
2 | C=CS(=O)(=O)N1CCNCC1 [Compound 8, 1‐(Vinylsulfonyl)piperazine, reference compound] | – | no effects | no effects
